Reference: ChEMBL document CHEMBL4507264, “Data for DCP probe BAY-7598” (2021)

Experiments:
[1] = molecular target: Angiopoietin-1 receptor (Homo sapiens) (UniProt Q02763); conditions: Compound concentration 1000.0 nM
[2] = molecular target: Membrane-associated tyrosine- and threonine-specific cdc2-inhibitory kinase (Homo sapiens) (UniProt Q99640); conditions: Compound concentration 1000.0 nM
[3] = molecular target: D(1A) dopamine receptor (Homo sapiens) (UniProt P21728); conditions: Compound concentration 10.0 uM
[4] = molecular target: Serine/threonine-protein kinase Nek5 (Homo sapiens) (UniProt Q6P3R8); conditions: Compound concentration 1000.0 nM
[5] = molecular target: Mitogen-activated protein kinase kinase kinase kinase 2 (Homo sapiens) (UniProt Q12851); conditions: Compound concentration 1000.0 nM
[6] = system: Tyrosine-protein kinase ABL1 (Homo sapiens), P00519 [Y253F]; conditions: Compound concentration 1000.0 nM
[7] = molecular target: Interleukin-1 receptor-associated kinase 1 (Homo sapiens) (UniProt P51617); conditions: Compound concentration 1000.0 nM
[8] = system: Phosphatidylinositol 4,5-bisphosphate 3-kinase catalytic subunit alpha isoform (Homo sapiens), P42336 [Q546K]; conditions: Compound concentration 1000.0 nM
[9] = molecular target: Activated CDC42 kinase 1 (Homo sapiens) (UniProt Q07912); conditions: Compound concentration 1000.0 nM
[10] = molecular target: Serine/threonine-protein kinase ULK2 (Homo sapiens) (UniProt Q8IYT8); conditions: Compound concentration 1000.0 nM
[11] = molecular target: cAMP-dependent protein kinase catalytic subunit beta (Homo sapiens) (UniProt P22694); conditions: Compound concentration 1000.0 nM
[12] = molecular target: Proto-oncogene tyrosine-protein kinase ROS (Homo sapiens) (UniProt P08922); conditions: Compound concentration 1000.0 nM
[13] = molecular target: 5-hydroxytryptamine receptor 7 (Homo sapiens) (UniProt P34969); conditions: Compound concentration 10.0 uM
[14] = molecular target: Wee1-like protein kinase (Homo sapiens) (UniProt P30291); conditions: Compound concentration 1000.0 nM
[15] = system: Mast/stem cell growth factor receptor Kit (Homo sapiens), P10721 [A829P]; conditions: Compound concentration 1000.0 nM
[16] = molecular target: cGMP-dependent protein kinase 1 (Homo sapiens) (UniProt Q13976); conditions: Compound concentration 1000.0 nM
[17] = molecular target: Uncharacterized serine/threonine-protein kinase SBK3 (Homo sapiens) (UniProt P0C264); conditions: Compound concentration 1000.0 nM
[18] = system: Receptor-type tyrosine-protein kinase FLT3 (Homo sapiens), P36888 [N841I]; conditions: Compound concentration 1000.0 nM
[19] = molecular target: Serine/threonine-protein kinase Sgk3 (Homo sapiens) (UniProt Q96BR1); conditions: Compound concentration 1000.0 nM
[20] = molecular target: Megakaryocyte-associated tyrosine-protein kinase (Homo sapiens) (UniProt P42679); conditions: Compound concentration 1000.0 nM
[21] = molecular target: Serine/threonine-protein kinase TAO3 (Homo sapiens) (UniProt Q9H2K8); conditions: Compound concentration 1000.0 nM
[22] = molecular target: Serine/threonine-protein kinase MRCK gamma (Homo sapiens) (UniProt Q6DT37); conditions: Compound concentration 1000.0 nM
[23] = molecular target: Cyclin-dependent kinase-like 5 (Homo sapiens) (UniProt O76039); conditions: Compound concentration 1000.0 nM
[24] = molecular target: Serine/threonine-protein kinase TAO1 (Homo sapiens) (UniProt Q7L7X3); conditions: Compound concentration 1000.0 nM
[25] = system: Tyrosine-protein kinase ABL1 (Homo sapiens), P00519 [T315I]; conditions: Compound concentration 1000.0 nM
[26] = molecular target: NT-3 growth factor receptor (Homo sapiens) (UniProt Q16288); conditions: Compound concentration 1000.0 nM
[27] = molecular target: T1, Alpha-1D adrenergic receptor (Homo sapiens) (UniProt P25100); conditions: Compound concentration 10.0 uM
T1 sequence (whole entry): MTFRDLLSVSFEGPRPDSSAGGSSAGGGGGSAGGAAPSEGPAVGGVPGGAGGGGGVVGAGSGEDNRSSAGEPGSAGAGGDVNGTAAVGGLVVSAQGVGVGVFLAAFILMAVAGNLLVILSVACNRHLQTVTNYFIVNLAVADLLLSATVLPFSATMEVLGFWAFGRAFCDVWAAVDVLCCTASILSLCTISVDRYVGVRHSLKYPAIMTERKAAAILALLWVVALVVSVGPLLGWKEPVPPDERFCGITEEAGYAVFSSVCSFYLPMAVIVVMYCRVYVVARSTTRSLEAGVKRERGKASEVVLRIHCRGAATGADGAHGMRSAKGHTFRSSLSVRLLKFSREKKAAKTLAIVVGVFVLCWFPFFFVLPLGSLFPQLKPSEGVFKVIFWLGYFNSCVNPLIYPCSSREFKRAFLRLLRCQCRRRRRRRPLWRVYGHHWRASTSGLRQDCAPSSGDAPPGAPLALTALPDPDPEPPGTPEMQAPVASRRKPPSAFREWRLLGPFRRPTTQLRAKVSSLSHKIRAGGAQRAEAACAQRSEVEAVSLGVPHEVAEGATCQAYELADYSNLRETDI

[28] = molecular target: RAC-beta serine/threonine-protein kinase (Homo sapiens) (UniProt P31751); conditions: Compound concentration 1000.0 nM
[29] = molecular target: Aurora kinase B (Homo sapiens) (UniProt Q96GD4); conditions: Compound concentration 1000.0 nM
[30] = molecular target: Phosphatidylinositol 4-phosphate 5-kinase type-1 alpha (Homo sapiens) (UniProt Q99755); conditions: Compound concentration 1000.0 nM
[31] = molecular target: Mitogen-activated protein kinase 15 (Homo sapiens) (UniProt Q8TD08); conditions: Compound concentration 1000.0 nM
[32] = molecular target: Cyclin-dependent kinase 7 (Homo sapiens) (UniProt P50613); conditions: Compound concentration 1000.0 nM
[33] = molecular target: Receptor-type tyrosine-protein kinase FLT3 (Homo sapiens) (UniProt P36888); conditions: Compound concentration 1000.0 nM
[34] = molecular target: Serine/threonine-protein kinase pim-2 (Homo sapiens) (UniProt Q9P1W9); conditions: Compound concentration 1000.0 nM
[35] = molecular target: Serine/threonine-protein kinase VRK2 (Homo sapiens) (UniProt Q86Y07); conditions: Compound concentration 1000.0 nM
[36] = molecular target: Activin receptor type-2A (Homo sapiens) (UniProt P27037); conditions: Compound concentration 1000.0 nM
[37] = molecular target: Mitogen-activated protein kinase kinase kinase 5 (Homo sapiens) (UniProt Q99683); conditions: Compound concentration 1000.0 nM

Activin receptor type-2A (Homo sapiens), sequence (P27037 whole entry): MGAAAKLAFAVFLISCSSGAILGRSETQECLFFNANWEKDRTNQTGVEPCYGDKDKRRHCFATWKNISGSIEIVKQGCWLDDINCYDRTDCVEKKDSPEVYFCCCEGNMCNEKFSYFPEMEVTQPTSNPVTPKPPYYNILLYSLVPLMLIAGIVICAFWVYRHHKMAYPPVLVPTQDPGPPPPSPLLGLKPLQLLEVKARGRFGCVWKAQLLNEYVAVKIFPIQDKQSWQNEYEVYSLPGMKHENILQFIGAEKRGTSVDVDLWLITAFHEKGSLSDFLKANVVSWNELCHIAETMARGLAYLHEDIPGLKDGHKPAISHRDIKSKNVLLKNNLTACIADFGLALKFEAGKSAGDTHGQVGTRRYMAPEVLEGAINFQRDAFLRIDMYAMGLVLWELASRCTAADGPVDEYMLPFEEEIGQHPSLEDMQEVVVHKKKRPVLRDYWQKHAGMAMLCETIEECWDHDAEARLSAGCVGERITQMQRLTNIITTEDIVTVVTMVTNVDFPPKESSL
NT-3 growth factor receptor (Homo sapiens), sequence (Q16288 32-839 limits assumed): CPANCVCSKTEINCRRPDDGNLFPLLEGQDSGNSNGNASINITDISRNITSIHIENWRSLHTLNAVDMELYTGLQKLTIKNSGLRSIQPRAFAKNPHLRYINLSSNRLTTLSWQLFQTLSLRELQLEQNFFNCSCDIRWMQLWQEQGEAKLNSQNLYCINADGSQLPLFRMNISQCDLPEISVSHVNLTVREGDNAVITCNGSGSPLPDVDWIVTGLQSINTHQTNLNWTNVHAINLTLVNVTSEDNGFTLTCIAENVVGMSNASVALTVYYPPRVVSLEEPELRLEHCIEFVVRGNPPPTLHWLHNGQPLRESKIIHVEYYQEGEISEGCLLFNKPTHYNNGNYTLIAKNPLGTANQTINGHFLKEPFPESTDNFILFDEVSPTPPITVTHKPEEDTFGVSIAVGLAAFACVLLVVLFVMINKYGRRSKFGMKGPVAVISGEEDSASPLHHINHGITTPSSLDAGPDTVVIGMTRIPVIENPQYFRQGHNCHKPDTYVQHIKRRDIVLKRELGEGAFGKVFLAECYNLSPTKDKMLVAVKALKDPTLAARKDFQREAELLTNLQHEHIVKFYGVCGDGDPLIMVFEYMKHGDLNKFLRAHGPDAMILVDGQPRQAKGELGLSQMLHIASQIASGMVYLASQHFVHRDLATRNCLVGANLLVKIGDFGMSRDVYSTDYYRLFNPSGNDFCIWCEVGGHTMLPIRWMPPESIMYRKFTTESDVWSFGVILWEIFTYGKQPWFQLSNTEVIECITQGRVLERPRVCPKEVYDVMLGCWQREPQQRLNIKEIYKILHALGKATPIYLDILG
Serine/threonine-protein kinase pim-2 (Homo sapiens), sequence (Q9P1W9 whole entry, looked up): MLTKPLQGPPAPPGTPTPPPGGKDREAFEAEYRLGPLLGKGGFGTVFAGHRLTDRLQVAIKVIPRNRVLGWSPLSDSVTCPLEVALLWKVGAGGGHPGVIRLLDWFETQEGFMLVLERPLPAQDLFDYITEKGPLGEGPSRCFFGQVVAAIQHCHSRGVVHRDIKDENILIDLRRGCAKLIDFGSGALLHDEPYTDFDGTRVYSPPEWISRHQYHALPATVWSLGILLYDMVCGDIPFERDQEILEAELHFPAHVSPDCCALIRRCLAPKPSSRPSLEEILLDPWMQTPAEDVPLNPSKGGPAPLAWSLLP
cGMP-dependent protein kinase 1 (Homo sapiens), sequence (Q13976 whole entry): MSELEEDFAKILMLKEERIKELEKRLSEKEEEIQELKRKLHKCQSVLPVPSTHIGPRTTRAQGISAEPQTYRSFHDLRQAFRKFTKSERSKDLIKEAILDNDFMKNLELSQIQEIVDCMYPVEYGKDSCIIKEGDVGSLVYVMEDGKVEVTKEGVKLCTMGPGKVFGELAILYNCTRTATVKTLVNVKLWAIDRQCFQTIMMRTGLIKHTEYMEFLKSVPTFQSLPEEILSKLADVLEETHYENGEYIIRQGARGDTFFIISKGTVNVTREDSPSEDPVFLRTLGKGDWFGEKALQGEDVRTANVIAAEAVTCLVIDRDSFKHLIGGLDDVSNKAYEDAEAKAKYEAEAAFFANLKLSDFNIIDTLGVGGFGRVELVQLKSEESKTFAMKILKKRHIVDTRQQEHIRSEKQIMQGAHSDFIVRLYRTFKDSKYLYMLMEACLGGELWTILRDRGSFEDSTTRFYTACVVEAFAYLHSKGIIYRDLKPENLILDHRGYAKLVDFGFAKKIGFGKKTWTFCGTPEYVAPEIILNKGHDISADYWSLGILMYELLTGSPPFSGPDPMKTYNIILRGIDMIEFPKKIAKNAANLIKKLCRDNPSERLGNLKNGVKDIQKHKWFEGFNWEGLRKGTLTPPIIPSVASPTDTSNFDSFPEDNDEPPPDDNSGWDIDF
Uncharacterized serine/threonine-protein kinase SBK3 (Homo sapiens), sequence (P0C264 whole entry): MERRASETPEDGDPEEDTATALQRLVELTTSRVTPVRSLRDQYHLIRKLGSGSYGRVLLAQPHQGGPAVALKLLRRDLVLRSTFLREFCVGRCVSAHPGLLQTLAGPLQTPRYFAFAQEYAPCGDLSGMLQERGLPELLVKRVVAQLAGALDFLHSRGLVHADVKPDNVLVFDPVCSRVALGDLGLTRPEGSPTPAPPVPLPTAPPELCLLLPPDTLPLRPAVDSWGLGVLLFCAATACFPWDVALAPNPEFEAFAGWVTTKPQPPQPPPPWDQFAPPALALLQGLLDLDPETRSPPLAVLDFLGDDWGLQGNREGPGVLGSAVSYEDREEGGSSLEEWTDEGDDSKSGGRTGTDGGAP
Serine/threonine-protein kinase VRK2 (Homo sapiens), sequence (Q86Y07 whole entry): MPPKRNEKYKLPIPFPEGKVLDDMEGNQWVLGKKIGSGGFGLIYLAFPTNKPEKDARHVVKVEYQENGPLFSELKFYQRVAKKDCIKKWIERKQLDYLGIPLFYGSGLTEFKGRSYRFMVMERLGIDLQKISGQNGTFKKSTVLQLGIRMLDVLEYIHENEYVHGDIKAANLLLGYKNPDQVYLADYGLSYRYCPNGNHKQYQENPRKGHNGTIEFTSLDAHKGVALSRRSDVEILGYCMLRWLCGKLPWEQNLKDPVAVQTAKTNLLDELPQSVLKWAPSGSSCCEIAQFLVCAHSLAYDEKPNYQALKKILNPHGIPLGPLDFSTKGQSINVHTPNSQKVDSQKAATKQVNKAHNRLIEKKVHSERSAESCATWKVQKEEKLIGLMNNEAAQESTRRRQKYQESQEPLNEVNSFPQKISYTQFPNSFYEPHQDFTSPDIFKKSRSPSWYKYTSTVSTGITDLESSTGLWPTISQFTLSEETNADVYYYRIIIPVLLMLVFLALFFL
Cyclin-dependent kinase-like 5 (Homo sapiens), sequence (O76039 whole entry): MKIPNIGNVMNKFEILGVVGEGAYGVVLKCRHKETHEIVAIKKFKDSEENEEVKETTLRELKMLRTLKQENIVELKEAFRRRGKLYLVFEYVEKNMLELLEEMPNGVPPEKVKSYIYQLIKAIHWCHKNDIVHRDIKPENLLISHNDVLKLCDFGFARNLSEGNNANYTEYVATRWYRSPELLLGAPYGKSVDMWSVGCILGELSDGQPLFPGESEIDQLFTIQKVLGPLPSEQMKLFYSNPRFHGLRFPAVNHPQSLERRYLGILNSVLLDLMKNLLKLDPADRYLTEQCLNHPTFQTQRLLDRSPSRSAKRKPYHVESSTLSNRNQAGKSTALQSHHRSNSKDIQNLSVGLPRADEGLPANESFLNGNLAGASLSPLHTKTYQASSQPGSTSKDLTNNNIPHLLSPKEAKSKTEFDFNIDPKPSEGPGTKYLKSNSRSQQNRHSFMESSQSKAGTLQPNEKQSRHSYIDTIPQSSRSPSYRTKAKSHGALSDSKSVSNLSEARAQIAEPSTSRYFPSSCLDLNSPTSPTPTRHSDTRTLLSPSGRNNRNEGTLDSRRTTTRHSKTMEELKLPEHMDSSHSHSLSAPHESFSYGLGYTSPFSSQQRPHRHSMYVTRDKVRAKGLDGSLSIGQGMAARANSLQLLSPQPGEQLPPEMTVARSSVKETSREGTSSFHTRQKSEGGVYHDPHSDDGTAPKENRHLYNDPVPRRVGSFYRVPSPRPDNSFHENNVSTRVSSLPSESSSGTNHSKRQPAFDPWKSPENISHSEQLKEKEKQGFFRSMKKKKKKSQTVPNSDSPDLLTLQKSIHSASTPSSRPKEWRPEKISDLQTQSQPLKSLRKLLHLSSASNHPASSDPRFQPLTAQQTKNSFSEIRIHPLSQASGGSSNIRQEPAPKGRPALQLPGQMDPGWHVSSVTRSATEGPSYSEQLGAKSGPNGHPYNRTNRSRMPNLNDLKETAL
Serine/threonine-protein kinase Sgk3 (Homo sapiens), sequence (Q96BR1 whole entry): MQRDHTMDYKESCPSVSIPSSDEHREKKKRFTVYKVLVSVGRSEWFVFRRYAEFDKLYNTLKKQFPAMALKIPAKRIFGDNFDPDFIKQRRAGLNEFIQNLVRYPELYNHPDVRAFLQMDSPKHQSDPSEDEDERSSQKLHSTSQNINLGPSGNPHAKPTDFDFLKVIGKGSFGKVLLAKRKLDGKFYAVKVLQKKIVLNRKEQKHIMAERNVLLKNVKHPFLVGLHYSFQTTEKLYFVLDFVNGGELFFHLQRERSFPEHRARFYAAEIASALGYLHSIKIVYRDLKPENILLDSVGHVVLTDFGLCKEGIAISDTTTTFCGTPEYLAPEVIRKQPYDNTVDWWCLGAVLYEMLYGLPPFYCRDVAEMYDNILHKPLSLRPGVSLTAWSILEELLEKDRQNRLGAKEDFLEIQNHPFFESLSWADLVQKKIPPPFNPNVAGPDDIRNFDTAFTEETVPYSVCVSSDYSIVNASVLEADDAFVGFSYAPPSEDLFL
Cyclin-dependent kinase 7 (Homo sapiens), sequence (P50613 whole entry): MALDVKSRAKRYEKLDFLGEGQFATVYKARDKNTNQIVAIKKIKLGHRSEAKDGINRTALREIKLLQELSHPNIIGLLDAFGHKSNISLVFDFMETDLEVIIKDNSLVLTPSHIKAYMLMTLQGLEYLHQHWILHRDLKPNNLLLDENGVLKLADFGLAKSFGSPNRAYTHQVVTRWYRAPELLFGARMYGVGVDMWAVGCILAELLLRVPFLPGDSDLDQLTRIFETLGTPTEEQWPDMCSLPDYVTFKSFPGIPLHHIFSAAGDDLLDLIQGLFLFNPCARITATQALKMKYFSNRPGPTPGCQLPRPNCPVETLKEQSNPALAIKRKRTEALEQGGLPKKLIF

SMILES | residual activity [1] [%] | residual activity [2] [%] | inhibition [3] [%] | residual activity [4] [%] | residual activity [5] [%] | residual activity [6] [%] | residual activity [7] [%] | residual activity [8] [%] | residual activity [9] [%] | residual activity [10] [%] | residual activity [11] [%] | residual activity [12] [%] | inhibition [13] [%] | residual activity [14] [%] | residual activity [15] [%] | residual activity [16] [%] | residual activity [17] [%] | residual activity [18] [%] | residual activity [19] [%] | residual activity [20] [%] | further results
O=C(O)[C@@H]1[C@@H](Cn2nnc3ccccc3c2=O)CC[C@H]1C(=O)c1ccc(OCCC2CCOCC2)cc1 [BAY-694] | 100 | 82 | 4.76 | 100 | 97 | 100 | 82 | 86 | 100 | 90 | 100 | 95 | -2.99 | 93 | 90 | 100 | 43 | 98 | 100 | 95 | residual activity [21]: 100%; residual activity [22]: 100%; residual activity [23]: 96%; residual activity [24]: 100%; residual activity [25]: 100%; residual activity [26]: 86%; inhibition [27]: 0.08%; residual activity [28]: 100%; residual activity [29]: 100%; residual activity [30]: 94%; residual activity [31]: 100%; residual activity [32]: 86%; residual activity [33]: 100%; residual activity [34]: 94%; residual activity [35]: 80%; residual activity [36]: 100%; residual activity [37]: 94%
O=C(O)[C@H]1[C@H](Cn2nnc3ccccc3c2=O)CC[C@@H]1C(=O)c1ccc(OCCC2CCOCC2)cc1 [BAY-7598] | 86 | 96 | 1.16 | 97 | 100 | 100 | 70 | 97 | 100 | 100 | 95 | 95 | -3.55 | 100 | 84 | 75 | 100 | 85 | 100 | 83 | residual activity [21]: 100%; residual activity [22]: 93%; residual activity [23]: 85%; residual activity [24]: 100%; residual activity [25]: 79%; residual activity [26]: 82%; inhibition [27]: 0.59%; residual activity [28]: 88%; residual activity [29]: 100%; residual activity [30]: 88%; residual activity [31]: 100%; residual activity [32]: 95%; residual activity [33]: 99%; residual activity [34]: 96%; residual activity [35]: 80%; residual activity [36]: 87%; residual activity [37]: 95%
